The values that follow come from publication PMC9421655, “Novel Antagonist of the Type 2 Lysophosphatidic Acid Receptor (LPA2), UCM-14216, Ameliorates Spinal Cord Injury in Mice” (Journal of Medicinal Chemistry, 2022).

Data set [1] has as its target LPA1 (Homo sapiens, UniProt Q92633). Nature of the data set: cell-based. The note with it: maximum blockade of activation induced by 10 μM LPA (18:1) at 10 μM compound; N.E. = no effect at 10 μM. The protocol:
(§1) Cells stably expressing the corresponding LPA1–3 receptor were grown as described previously.[18] Changes in intracellular calcium levels were measured by using the fluorescent calcium sensitive dye Fluo-4 NW (Invitrogen). RH7777 cells or B103 cells were plated on poly-D-lysine or collagen coated, respectively, black-wall clear-bottom 96-well plates (Corning) at a density of 50 000 cells/well and cultured overnight. The culture medium was then replaced with 100 μL of Fluo-4 NW dye loading solution containing 2.5 μM of probenecid and incubated for 30 min at 37 °C followed by an additional 30 min at rt. […] Fluorescence changes were registered in a FluoStar Optima instrument (BMG Labtech) at 525 nm using an excitation wavelength of 494 nm. […] The data presented are from two to four independent experiments carried out in triplicate or quadruplicate. Dose–response curves were generated and IC50 values calculated by nonlinear regression analysis using Prism software version 5 (GraphPad Software Inc., San Diego, CA, USA).

Data set [2] has as its target T1, LPA2 (Homo sapiens, UniProt Q9HBW0).
T1 construct: expressed in transfected cells
Nature of the data set: Ca2+ mobilization assay, antagonist activity at LPA2. It counts as cell-based. Details: Emax: dose or concentration left out as unconfirmed. The protocol: as §1
Figure S2. Dose response curves for compounds 13, 44, 53, 54, and 55. B103 cells stably expressing LPA2 receptor were incubated with different concentrations of the compound under study and […]
Curves were generated with PRISM software version 5 (GraphPad Software Inc, San Diego, CA, USA) using nonlinear regression analysis. Each data point corresponds to the mean±SEM of two to four independent experiments carried out in triplicate or quadruplicate.
(In general: Calcium assays in cells follow changes in intracellular calcium, usually with a dye or a luminescent sensor.)

The target in data set [3] is T2, LPA2 mutant R107A (Homo sapiens, UniProt Q9HBW0, R104A).
T2 construct: host or cells: McA-RH7777 (CRL-1601, ATCC), transient, pcDNA3.1
T2 sequence (Q9HBW0 whole entry R104A): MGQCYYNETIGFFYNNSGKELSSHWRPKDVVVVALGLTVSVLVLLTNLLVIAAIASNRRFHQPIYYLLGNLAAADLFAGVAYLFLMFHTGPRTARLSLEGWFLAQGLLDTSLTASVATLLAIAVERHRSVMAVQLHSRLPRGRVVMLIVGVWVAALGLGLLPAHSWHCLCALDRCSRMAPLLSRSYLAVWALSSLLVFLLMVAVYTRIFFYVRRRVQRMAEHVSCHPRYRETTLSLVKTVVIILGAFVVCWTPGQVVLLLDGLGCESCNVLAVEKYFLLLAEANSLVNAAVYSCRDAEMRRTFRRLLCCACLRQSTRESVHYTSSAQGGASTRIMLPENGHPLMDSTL
Nature of the data set: Ca2+ mobilization in McA-RH7777 cells transfected with LPA2 point mutant R107A. The note with it: 54 at 10 μM, 10 μM LPA. It counts as cell-based.

Data set [4] concerns the target T3, LPA2 mutant Q108A (Homo sapiens, UniProt Q9HBW0, Q105A).
T3 construct: host or cells: McA-RH7777 (CRL-1601, ATCC), transient, pcDNA3.1
Nature of the data set: Ca2+ mobilization in McA-RH7777 cells transfected with LPA2 point mutant Q108A. The note with it: 54 at 10 μM, 10 μM LPA. It counts as cell-based.

Data set [5] addresses LPA4 (Homo sapiens, UniProt Q99677). The note with it: in abstract. As for the experimental part:
(§2) The assay was analyzed using a benchtop Compensated Interferometric Reader (CIR) that measured the light refractive index (ΔRI) change from binding-induced conformational and/or hydration changes produced by real time binding events in a sample (receptor containing nanovesicles plus compound) and compared to a nonbinding reference (RI matched buffer plus compound).[30] Finally, the interferometric signal from vector nanovesicles binding (nonspecific) to compound was subtracted from the LPA2,4–6 containing nanovesicles binding (total) to compound, to determine the specific binding interactions of the compounds to LPA2,4–6. The concentration-dependent change in RI (ΔRI) signal from the compounds to LPA2,4–6 or vector was fitted using the single site total vs nonspecific binding isotherm using GraphPad Prism. Specific KD values were determined by fitting the total minus nonspecific signal to a single site binding isotherm.
(§3) The detailed free solution assay method was described previously.[25],[26] All the compounds were dissolved in 100% DMSO, aliquoted, and frozen at −80 °C for 1 week. The compound dilution series was freshly prepared in 0.5% DMSO/PBS (pH 7.4) to keep the maximum compound in solution. […]

The target of data set [6] is LPA5 (Homo sapiens, UniProt Q9H1C0). The note with it: in abstract. The protocol:
as §2, §3

Data set [7] is described as follows: Parallel artificial membrane permeability assay (PAMPA). It counts as in vitro ADME. The conditions noted are these: pH 7.4, PAMPA, PBS pH 7.4, 5 h, rt, read-out: P (cm/s), permeability value. The protocol: These studies were carried out as previously described with minor modifications.[41],[42] The assessment of the membrane permeability of synthesized compounds and propranolol and metoprolol as reference compounds was performed in a commercially available 96-well Corning Gentest precoated PAMPA plate system (Cultek S.L.U., Spain). Prior to use, the precoated PAMPA plate system was warmed to rt for 30 min and 300 μL of 200 μM solution of tested compound in 2% DMSO in PBS (pH 7.4) were added into wells in the receiver (donor) plate. Then, 200 μL of PBS were added into wells in the filter (acceptor) plate. The filter plate was placed on the receiver plate by slowly lowering the precoated PAMPA plate until it sits on the receiver plate. The assembly was incubated at rt for 5 h, and then buffer samples were collected carefully from each plate. The final concentrations of compound in both donor and acceptor wells were analyzed by HPLC-MS and quantification was estimated by using the peak area integration normalized with an internal standard. Permeability value of the compounds was calculated using the following formula: P (cm/s) = {−ln[1 – CA(t)/Ceq]}/[A(1/VD + 1/VA)t], where A = filter area (0.3 cm^2), VD = donor well volume (0.3 mL), VA = acceptor well volume (0.2 mL), t = incubation time (s), CA(t) = compound concentration (μM) in the acceptor well at time t, CD(t) = compound concentration (μM) in donor well at time t, and Ceq = [CD(t)VD + CA(t)VA]/(VD + VA). Assays were performed in duplicate, and the compound was tested in two different plates on different days.

Data set [8] in a line: Metabolic stability in human liver microsomes. Format: in vitro ADME. The conditions noted are these: male, liver microsomes (pooled), 1 mg/mL protein, NADPH, 37 °C, read-out: stability (t1/2, min) HLMs. The protocol:
Reactions were initiated by the addition of a suspension of mouse liver microsomes (MLMs) (male CD-1 mice pooled, Sigma-Aldrich) or human liver microsomes (HLMs) (male human pooled, Sigma-Aldrich), respectively, at a final protein concentration of 1 mg/mL. […] Aliquots of 100 μL were quenched at time zero and at seven points ranging to 2 h (MLM) or 4 h (HLM) by pouring into 100 μL of ice-cold acetonitrile. […] The relative disappearance of the compound under study over the course of the incubation was monitored by HPLC-MS using SIM mode. Concentrations were quantified by measuring the area under the peak ([M + H]^+) normalized with an internal standard and converted to the percentage of compound remaining, using the time zero peak area value as 100%. The natural logarithm of the remaining percentage versus time data for each compound was fit to a linear regression, and the slope was used to calculate the degradation half-life (t1/2).

Chain of LPA1 (Q92633 whole entry, species assumed): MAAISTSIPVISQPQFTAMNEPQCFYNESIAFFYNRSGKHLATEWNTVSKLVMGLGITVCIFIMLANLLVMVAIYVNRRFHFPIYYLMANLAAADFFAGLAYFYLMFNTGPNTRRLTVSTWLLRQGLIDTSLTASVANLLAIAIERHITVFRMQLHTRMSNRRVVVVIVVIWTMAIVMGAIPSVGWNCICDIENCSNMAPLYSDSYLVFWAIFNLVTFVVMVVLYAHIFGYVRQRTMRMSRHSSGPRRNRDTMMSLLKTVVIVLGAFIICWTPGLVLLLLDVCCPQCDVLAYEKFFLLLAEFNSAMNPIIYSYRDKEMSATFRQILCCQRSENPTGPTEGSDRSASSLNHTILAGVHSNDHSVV
T1 sequence (Q9HBW0 whole entry, species assumed): as the sequence (Q9HBW0 whole entry R104A) above, with A104R counted along it
T3 sequence (Q9HBW0 whole entry Q105A): as the sequence (Q9HBW0 whole entry R104A) above, with A104R, Q105A counted along it
Chain of LPA4 (Q99677 whole entry, species assumed): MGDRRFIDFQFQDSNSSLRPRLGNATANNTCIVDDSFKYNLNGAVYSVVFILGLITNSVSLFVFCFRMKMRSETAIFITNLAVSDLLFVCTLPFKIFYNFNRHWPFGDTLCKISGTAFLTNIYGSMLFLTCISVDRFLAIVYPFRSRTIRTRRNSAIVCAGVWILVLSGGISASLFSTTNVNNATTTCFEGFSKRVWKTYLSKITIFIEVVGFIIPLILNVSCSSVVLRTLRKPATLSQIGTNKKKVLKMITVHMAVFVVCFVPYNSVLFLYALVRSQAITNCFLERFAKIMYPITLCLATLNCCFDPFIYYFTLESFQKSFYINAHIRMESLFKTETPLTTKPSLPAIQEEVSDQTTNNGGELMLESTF
Chain of LPA5 (Q9H1C0 whole entry, species assumed): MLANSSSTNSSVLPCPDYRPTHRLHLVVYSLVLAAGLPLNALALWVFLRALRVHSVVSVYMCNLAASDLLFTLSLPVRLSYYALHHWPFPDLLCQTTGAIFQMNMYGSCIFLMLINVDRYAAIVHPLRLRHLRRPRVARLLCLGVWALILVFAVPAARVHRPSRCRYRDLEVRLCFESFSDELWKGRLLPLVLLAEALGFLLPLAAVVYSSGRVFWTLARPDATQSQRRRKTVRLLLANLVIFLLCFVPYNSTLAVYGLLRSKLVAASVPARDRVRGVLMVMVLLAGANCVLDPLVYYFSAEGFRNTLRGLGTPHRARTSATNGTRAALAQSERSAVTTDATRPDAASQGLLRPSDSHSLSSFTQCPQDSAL

Usually Emax stands for the maximal effect, on the per cent scale that the assay sets. What is called IC50 is the concentration that inhibits the measured activity by half. The term melting point denotes the temperature of the solid-liquid transition. For the molecule `Cc1[nH]nc(-c2ccc(OCc3nnn[nH]3)cc2O)c1Oc1ccc(Cl)cc1Cl` [Compound 54], the melting point was 180 to 182 °C. For the same molecule, the “Emax (%) LPA1” value in [1] was “inactive and N.E”. The Emax in [2] stood at 90 ± 2%. This molecule gave an IC50 in data set [2] (antagonism of 10 μM LPA, mean ± s.e.m.) of 1.9 µM. The “agonist/antagonist activity at LPA2 R107A mutant” value in data set [3] is listed as “no significant agonist nor antagonist activity”. For the same molecule, the “agonist/antagonist activity at LPA2 Q108A mutant” value in data set [4] is given as “no significant agonist nor antagonist activity”. The “activity at LPA4 receptor” value in [5] was “inactive”. Besides, the “activity at LPA5 receptor” value in [6] was “inactive”. Besides, the Papp at 5 h, 200 μM in data set [7] was 6.1 ×10⁻⁶ cm/s. The half-life at 5 μM in [8] came to 97 ± 15 min.
